Literature values in PubChem BioAssay AID1259409 (Chemical Carcinogenesis Research Information System (CCRIS), 2018).

Tested on: rodent chemically induced tumor inhibition, incidence and multiplicity
Assay: CCRIS tumor inhibitor studies
Source text: The CCRIS database contains chemical records with carcinogenicity, mutagenicity, tumor promotion, and tumor inhibition test results. It was developed by the National Cancer Institute (NCI). Data are derived from studies cited in primary journals, current awareness tools, NCI reports, and other sources. Test results have been reviewed by experts in carcinogenesis and mutagenesis.
CCRIS provides historical information from the years 1985 - 2011. It is no longer updated.
This is an archive assay for CCRIS tumor inhibitor studies.

SMILES: Clc1c(Cl)c(Cl)c2c(c1Cl)Oc1c(Cl)c(Cl)c(Cl)c(Cl)c1O2
- tumour outcome (control, treated, inhibition, significance) (Carcinogen: 7,12-DIMETHYLBENZ[A]ANTHRACENE, 57-97-6, Dose [Inhibitor]: 0, 17 NMOL 2/WK APPLIED 1 HR PRIOR TO EACH PROMOTER DOSE FOR 20 WK (STUDY DURATION: 21 WK), Route [Inhibitor]: DERMAL, Species: MOUSE, Target Tissue: Type of Lesion: SKIN: TUMOR, Dose [Carcinogen]: 390 NMOL ONCE, Promoter: 12-O-TETRADECANOYLPHORBOL-13-ACETATE, 16561-29-8): 100%, 87%, 13%, not calculated

SMILES: CCOC(=O)C(C)(C)Oc1ccc(Cl)cc1
- tumour outcome (control, treated, inhibition, significance) (Carcinogen: N-NITROSOBIS(2-HYDROXYPROPYL)AMINE, 53609-64-6, Dose [Inhibitor]: 0.25% IN DIET FOLLOWING LAST CARCINOGEN DOSE FOR 30 WK (STUDY DURATION: 35 WK), Route [Inhibitor]: ORAL, Species: HAMSTER, Strain/Sex: SYRIAN/MALE, Target Tissue: Type of Lesion: KIDNEY: RENAL CELL CARCINOMA, Dose [Carcinogen]: 500 MG/KG BW 1/WK FOR 5 WK, Promoter: NONE USED): 1/17 (6%), 2/16 (13%), -117%, not calculated
- tumour outcome (control, treated, inhibition, significance) (Carcinogen: N-NITROSOBIS(2-HYDROXYPROPYL)AMINE, 53609-64-6, Dose [Inhibitor]: 0.25% IN DIET FOLLOWING LAST CARCINOGEN DOSE FOR 30 WK (STUDY DURATION: 35 WK), Route [Inhibitor]: ORAL, Species: HAMSTER, Strain/Sex: SYRIAN/MALE, Target Tissue: Type of Lesion: LUNG: ADENOCARCINOMA, Dose [Carcinogen]: 500 MG/KG BW 1/WK FOR 5 WK, Promoter: NONE USED): 3/17 (18%), 0/16 (0%), 100%, not calculated
- tumour outcome (control, treated, inhibition, significance) (Carcinogen: N-NITROSOBIS(2-HYDROXYPROPYL)AMINE, 53609-64-6, Dose [Inhibitor]: 0.25% IN DIET FOLLOWING LAST CARCINOGEN DOSE FOR 30 WK (STUDY DURATION: 35 WK), Route [Inhibitor]: ORAL, Species: HAMSTER, Strain/Sex: SYRIAN/MALE, Target Tissue: Type of Lesion: LUNG: ADENOMA, Dose [Carcinogen]: 500 MG/KG BW 1/WK FOR 5 WK, Promoter: NONE USED): 16/17 (94%), 10/16 (63%), 33%, not calculated
- tumour outcome (control, treated, inhibition, significance) (Carcinogen: N-NITROSOBIS(2-HYDROXYPROPYL)AMINE, 53609-64-6, Dose [Inhibitor]: 0.25% IN DIET FOLLOWING LAST CARCINOGEN DOSE FOR 30 WK (STUDY DURATION: 35 WK), Route [Inhibitor]: ORAL, Species: HAMSTER, Strain/Sex: SYRIAN/MALE, Target Tissue: Type of Lesion: PANCREAS: ADENOCARCINOMA, Dose [Carcinogen]: 500 MG/KG BW 1/WK FOR 5 WK, Promoter: NONE USED): 8/17 (47%), 3/16 (19%), 60%, not calculated
- tumour outcome (control, treated, inhibition, significance) (Carcinogen: N-NITROSOBIS(2-HYDROXYPROPYL)AMINE, 53609-64-6, Dose [Inhibitor]: 0.25% IN DIET FOLLOWING LAST CARCINOGEN DOSE FOR 30 WK (STUDY DURATION: 35 WK), Route [Inhibitor]: ORAL, Species: HAMSTER, Strain/Sex: SYRIAN/MALE, Target Tissue: Type of Lesion: PANCREAS: ADENOMA, Dose [Carcinogen]: 500 MG/KG BW 1/WK FOR 5 WK, Promoter: NONE USED): 5/17 (29%), 4/16 (25%), 14%, not calculated
- tumour outcome (control, treated, inhibition, significance) (Carcinogen: N-NITROSOBIS(2-HYDROXYPROPYL)AMINE, 53609-64-6, Dose [Inhibitor]: 0.5% IN DIET FOLLOWING LAST CARCINOGEN DOSE FOR 30 WK (STUDY DURATION: 35 WK), Route [Inhibitor]: ORAL, Species: HAMSTER, Strain/Sex: SYRIAN/MALE, Target Tissue: Type of Lesion: KIDNEY: RENAL CELL CARCINOMA, Dose [Carcinogen]: 500 MG/KG BW 1/WK FOR 5 WK, Promoter: NONE USED): 1/17 (6%), 3/17 (18%), -200%, not calculated
- tumour outcome (control, treated, inhibition, significance) (Carcinogen: N-NITROSOBIS(2-HYDROXYPROPYL)AMINE, 53609-64-6, Dose [Inhibitor]: 0.5% IN DIET FOLLOWING LAST CARCINOGEN DOSE FOR 30 WK (STUDY DURATION: 35 WK), Route [Inhibitor]: ORAL, Species: HAMSTER, Strain/Sex: SYRIAN/MALE, Target Tissue: Type of Lesion: LUNG: ADENOCARCINOMA, Dose [Carcinogen]: 500 MG/KG BW 1/WK FOR 5 WK, Promoter: NONE USED): 3/17 (18%), 2/17 (12%), 33%, not calculated
- tumour outcome (control, treated, inhibition, significance) (Carcinogen: N-NITROSOBIS(2-HYDROXYPROPYL)AMINE, 53609-64-6, Dose [Inhibitor]: 0.5% IN DIET FOLLOWING LAST CARCINOGEN DOSE FOR 30 WK (STUDY DURATION: 35 WK), Route [Inhibitor]: ORAL, Species: HAMSTER, Strain/Sex: SYRIAN/MALE, Target Tissue: Type of Lesion: LUNG: ADENOMA, Dose [Carcinogen]: 500 MG/KG BW 1/WK FOR 5 WK, Promoter: NONE USED): 16/17 (94%), 9/17 (53%), 44%, p<0.05
- tumour outcome (control, treated, inhibition, significance) (Carcinogen: N-NITROSOBIS(2-HYDROXYPROPYL)AMINE, 53609-64-6, Dose [Inhibitor]: 0.5% IN DIET FOLLOWING LAST CARCINOGEN DOSE FOR 30 WK (STUDY DURATION: 35 WK), Route [Inhibitor]: ORAL, Species: HAMSTER, Strain/Sex: SYRIAN/MALE, Target Tissue: Type of Lesion: PANCREAS: ADENOCARCINOMA, Dose [Carcinogen]: 500 MG/KG BW 1/WK FOR 5 WK, Promoter: NONE USED): 8/17 (47%), 1/17 (6%), 87%, p<0.05
- tumour outcome (control, treated, inhibition, significance) (Carcinogen: N-NITROSOBIS(2-HYDROXYPROPYL)AMINE, 53609-64-6, Dose [Inhibitor]: 0.5% IN DIET FOLLOWING LAST CARCINOGEN DOSE FOR 30 WK (STUDY DURATION: 35 WK), Route [Inhibitor]: ORAL, Species: HAMSTER, Strain/Sex: SYRIAN/MALE, Target Tissue: Type of Lesion: PANCREAS: ADENOMA, Dose [Carcinogen]: 500 MG/KG BW 1/WK FOR 5 WK, Promoter: NONE USED): 5/17 (29%), 2/17 (12%), 59%, not calculated

SMILES: O=c1c(O)c(-c2cc(O)c(O)c(O)c2)oc2cc(O)ccc12
- tumour outcome (control, treated, inhibition, significance) (Carcinogen: (+/-)-7BETA,8ALPHA-DIHYDROXY-9ALPHA,10ALPHA-EPOXY-7,8,9,10-TETRAHYDROBENZO[A]PYR ENE, 58917-67-2, Dose [Inhibitor]: 0, 1400 NMOL (TOTAL DOSE) 10 MIN PRIOR TO CARCINOGEN DOSE INJECTED AS 1/7, 2/7,AND 4/7 OF THE TOTAL ON DAYS 1, 8, AND 15, Route [Inhibitor]: INTRAPERITONEAL, Species: MOUSE, Strain/Sex: ICR/MALE,FEMALE, Target Tissue: Type of Lesion: LUNG: TUMOR, Dose [Carcinogen]: 30 NMOL (TOTAL DOSE) INJECTED IN DOSES OF 1/7, 2/7, AND 4/7 ON DAYS 1,8, AND 15 OF LIFE, RESPECTIVELY, Promoter: NONE USED): 93%, 50%, 46%, p<0.05
- tumour outcome (control, treated, inhibition, significance) (Carcinogen: (+/-)-7BETA,8ALPHA-DIHYDROXY-9ALPHA,10ALPHA-EPOXY-7,8,9,10-TETRAHYDROBENZO[A]PYR ENE, 58917-67-2, Dose [Inhibitor]: 0, 1400 NMOL (TOTAL DOSE) APPLIED 10 MIN PRIOR TO CARCINOGEN DOSE INJECTED AS 1/7, 2/7, AND 4/7 OF THE TOTAL ON DAYS 1,, Route [Inhibitor]: INTRAPERITONEAL, Species: MOUSE, Strain/Sex: ICR/MALE,FEMALE, Target Tissue: Type of Lesion: LUNG: TUMOR, Dose [Carcinogen]: 15 NMOL (TOTAL DOSE) INJECTED IN DOSES OF 1/7, 2/7, AND 4/7 ON DAYS 1, 8, AND 15 OF LIFE, RESPECTIVELY, Promoter: NONE USED): 63%, 41%, 35%, p<0.05
- tumour outcome (control, treated, inhibition, significance) (Carcinogen: (+/-)-7BETA,8ALPHA-DIHYDROXY-9ALPHA,10ALPHA-EPOXY-7,8,9,10-TETRAHYDROBENZO[A]PYR ENE, 58917-67-2, Dose [Inhibitor]: 0, 2500 NMOL IN 200 µL ACETONE:DMSO (90:10) ONCE APPLIED 5 MIN PRIOR TO CARCINOGEN DOSE (STUDY DURATION: 21 WK), Route [Inhibitor]: DERMAL, Species: MOUSE, Strain/Sex: CD-1/FEMALE, Target Tissue: Type of Lesion: SKIN: TUMOR, Dose [Carcinogen]: 200 NMOL IN ACETONE:DMSO (90:10) ONCE, Promoter: 12-O-TETRADECANOYLPHORBOL-13-ACETATE, 16561-29-8): 59%, 68%, -15%, not significant
- tumour outcome (control, treated, inhibition, significance) (Carcinogen: BENZO[A]PYRENE, 50-32-8, Dose [Inhibitor]: 0, 1400 NMOL (TOTAL DOSE) APPLIED 10 MIN PRIOR TO CARCINOGEN DOSE INJECTED AS 1/7, 2/7, AND 4/7 OF THE TOTAL ON DAYS 1,, Route [Inhibitor]: INTRAPERITONEAL, Species: MOUSE, Strain/Sex: ICR/MALE,FEMALE, Target Tissue: Type of Lesion: LUNG: TUMOR, Dose [Carcinogen]: 450 NMOL (TOTAL DOSE) INJECTED IN DOSES OF 1/7, 2/7, AND 4/7 ON DAYS 1, 8, AND 15 OF LIFE, RESPECTIVELY, Promoter: NONE USED): 73%, 79%, -8%, not significant
- tumour outcome (control, treated, inhibition, significance) (Carcinogen: BENZO[A]PYRENE, 50-32-8, Dose [Inhibitor]: 0, 2500 NMOL IN 200 µL ACETONE:DMSO (90:10) ONCE APPLIED 5 MIN PRIOR TO CARCINOGEN DOSE (STUDY DURATION: 21 WK), Route [Inhibitor]: DERMAL, Species: MOUSE, Strain/Sex: CD-1/FEMALE, Target Tissue: Type of Lesion: SKIN: TUMOR, Dose [Carcinogen]: 50 NMOL IN ACETONE:DMSO (90:10) ONCE, Promoter: 12-O-TETRADECANOYLPHORBOL-13-ACETATE, 16561-29-8): 50%, 54%, -8%, not significant
